In patent publication US8410153B2, “Naphthalene isoxazoline invertebrate pest control agents” (E.I. du Pont de Nemours and Company, priority 2007, dated 2013):

How the values were obtained:
Format in all cases: in vivo
[1] = system: fall armyworm (Spodoptera frugiperda); assay: Test B: control of fall armyworm on corn (maize) plant, foliar spray; details: sprayed at 50 ppm
How it was run: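 4-5-day-old corn plants pre-infested with 10-15 1-day-old larvae on insect diet, then sprayed with compound at 50 ppm in 10% acetone/90% water with 300 ppm surfactant, three replicates. Held 6 days at 25° C, 70% RH; feeding damage assessed visually and mortality rated.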

[2] = system: diamondback moth (Plutella xylostella); assay: Test A: control of diamondback moth on radish plant, foliar spray; details: sprayed at 50 ppm, held 6 days
How it was run: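 Radish plants 12–14 days old, pre-infested with about 50 neonate larvae, sprayed at 50 ppm in 10% acetone/water with 300 ppm X-77 surfactant; three replicates. After 6 days at 25° C and 70% RH, feeding damage was scored visually and mortality counted.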

[3] = system: western flower thrips (Frankliniella occidentalis); assay: Test E: control of western flower thrips on Soleil bean plant, contact and/or systemic; details: held 6 days
How it was run: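 5–7-day-old Soleil bean plants were sprayed at 250 or 50 ppm in 10% acetone/90% water with 300 ppm X-77 surfactant, three replicates. After drying 1 h, 22–27 adult thrips were added per unit. Mortality and plant damage were rated after 6 days at 25 °C and 45–55% RH.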

Measured: levels of control efficacy (20% or less feeding damage or 80% or more mortality)

CCN(C)C(=O)CNC(=O)c1ccc(C2=NOC(c3cc(Cl)cc(Cl)c3)(C(F)(F)F)C2)c2ccccc12 (stereo not shown) [Compound 7]
very good to excellent: [1] | [2] | [3]; sprayed at 50 ppm | [3]; sprayed at 250 ppm

CSCCC(C)NC(=O)c1ccc(C2=NOC(c3cc(Cl)cc(Cl)c3)(C(F)(F)F)C2)c2ccccc12 (stereo not shown) [Compound 26]
very good to excellent: [1] | [2] | [3]; sprayed at 50 ppm | [3]; sprayed at 250 ppm

CSCC(C)NC(=O)c1ccc(C2=NOC(c3cc(Cl)cc(Cl)c3)(C(F)(F)F)C2)c2ccccc12 (stereo not shown) [Compound 30]
very good to excellent: [1] | [2] | [3]; sprayed at 250 ppm

CSCCNC(=O)c1ccc(C2=NOC(c3cc(F)cc(C(F)(F)F)c3)(C(F)(F)F)C2)c2ccccc12 (racemic) [Compound 132]
very good to excellent: [1] | [2] | [3]; sprayed at 50 ppm | [3]; sprayed at 250 ppm

COCCNC(=O)c1ccc(C2=NOC(c3cc(Cl)cc(Cl)c3)(C(F)(F)F)C2)c2ccccc12 (stereo not shown) [Compound 28]
very good to excellent: [1] | [2] | [3]; sprayed at 50 ppm | [3]; sprayed at 250 ppm

CCNC(=O)C(C)NC(=O)c1ccc(C2=NOC(c3cc(C(F)(F)F)cc(C(F)(F)F)c3)(C(F)(F)F)C2)c2ccccc12 (stereo not shown) [Compound 88]
very good to excellent: [1] | [2] | [3]; sprayed at 50 ppm | [3]; sprayed at 250 ppm

CSCC(C)NC(=O)c1ccc(C2=NOC(c3cc(C(F)(F)F)cc(C(F)(F)F)c3)(C(F)(F)F)C2)c2ccccc12 (mixture of isomers) [Compound 60]
very good to excellent: [1] | [2] | [3]; sprayed at 250 ppm

CC(C)NC(=O)CNC(=O)c1ccc(C2=NOC(c3cc(C(F)(F)F)cc(C(F)(F)F)c3)(C(F)(F)F)C2)c2ccccc12 (racemic) [Compound 40]
very good to excellent: [1] | [2] | [3]; sprayed at 50 ppm | [3]; sprayed at 250 ppm

CC(C)(C)NC(=O)CNC(=O)c1ccc(C2=NOC(c3cc(Cl)cc(Cl)c3)(C(F)(F)F)C2)c2ccccc12 (stereo not shown) [Compound 24]
very good to excellent: [1] | [2] | [3]; sprayed at 250 ppm

O=C(CNC(=O)c1ccc(C2=NOC(c3cccc(C(F)(F)F)c3)(C(F)(F)F)C2)c2ccccc12)NCC(F)(F)F (racemic) [Compound 35]
very good to excellent: [1] | [2] | [3]; sprayed at 250 ppm

CNC(=O)C(C)NC(=O)c1ccc(C2=NOC(c3cc(C(F)(F)F)cc(C(F)(F)F)c3)(C(F)(F)F)C2)c2ccccc12 (stereo not shown) [Compound 86]
very good to excellent: [1] | [2] | [3]; sprayed at 50 ppm | [3]; sprayed at 250 ppm

CCCNC(=O)CNC(=O)c1ccc(C2=NOC(c3cc(C(F)(F)F)cc(C(F)(F)F)c3)(C(F)(F)F)C2)c2ccccc12 (stereo not shown) [Compound 101]
very good to excellent: [1] | [2] | [3]; sprayed at 50 ppm

CSCC(C)NC(=O)c1ccc(C2=NOC(c3cc(Cl)cc(Cl)c3)(C(F)(F)F)C2)c2ccccc12 (mixture of isomers) [Compound 29]
very good to excellent: [1] | [2] | [3]; sprayed at 50 ppm | [3]; sprayed at 250 ppm

CC(C)CNC(=O)C(C)NC(=O)c1ccc(C2=NOC(c3cc(C(F)(F)F)cc(C(F)(F)F)c3)(C(F)(F)F)C2)c2ccccc12 (mixture of isomers) [Compound 93]
very good to excellent: [1] | [2] | [3]; sprayed at 50 ppm

O=C(CNC(=O)c1ccc(C2=NOC(c3cc(C(F)(F)F)cc(C(F)(F)F)c3)(C(F)(F)F)C2)c2ccccc12)NCC(F)(F)F (racemic) [Compound 37]
very good to excellent: [1] | [2] | [3]; sprayed at 50 ppm | [3]; sprayed at 250 ppm

CC(C)NC(=O)CNC(=O)c1ccc(C2=NOC(c3cc(Cl)cc(C(F)(F)F)c3)(C(F)(F)F)C2)c2ccccc12 (stereo not shown) [Compound 63]
very good to excellent: [1] | [2] | [3]; sprayed at 50 ppm | [3]; sprayed at 250 ppm

CC(C)NC(=O)CNC(=O)c1ccc(C2=NOC(c3cc(Cl)cc(Cl)c3)(C(F)(F)F)C2)c2ccccc12 (stereo not shown) [Compound 5]
very good to excellent: [1] | [2] | [3]; sprayed at 50 ppm | [3]; sprayed at 250 ppm

CC(C)CNC(=O)CNC(=O)c1ccc(C2=NOC(c3cc(C(F)(F)F)cc(C(F)(F)F)c3)(C(F)(F)F)C2)c2ccccc12 (stereo not shown) [Compound 102]
very good to excellent: [1] | [2] | [3]; sprayed at 50 ppm

CC(NC(=O)c1ccc(C2=NOC(c3cc(F)cc(C(F)(F)F)c3)(C(F)(F)F)C2)c2ccccc12)C(=O)NCC(F)(F)F (mixture of isomers) [Compound 139]
very good to excellent: [1] | [2] | [3]; sprayed at 50 ppm

CSCCNC(=O)c1ccc(C2=NOC(c3cc(Br)cc(C(F)(F)F)c3)(C(F)(F)F)C2)c2ccccc12 (racemic) [Compound 50]
very good to excellent: [1] | [2] | [3]; sprayed at 50 ppm | [3]; sprayed at 250 ppm

O=C(CNC(=O)c1ccc(C2=NOC(c3cc(Br)cc(Br)c3)(C(F)(F)F)C2)c2ccccc12)NCC(F)(F)F (stereo not shown) [Compound 23]
very good to excellent: [1] | [2] | [3]; sprayed at 50 ppm | [3]; sprayed at 250 ppm

CNC(=O)CNC(=O)c1ccc(C2=NOC(c3cc(C(F)(F)F)cc(C(F)(F)F)c3)(C(F)(F)F)C2)c2ccccc12 (stereo not shown) [Compound 105]
very good to excellent: [1] | [2] | [3]; sprayed at 50 ppm

CCNC(=O)CNC(=O)c1ccc(C2=NOC(c3cc(C(F)(F)F)cc(C(F)(F)F)c3)(C(F)(F)F)C2)c2ccccc12 (stereo not shown) [Compound 100]
very good to excellent: [1] | [2] | [3]; sprayed at 50 ppm
